Laboratory results: patent publication US10792260B2, “Retinopathy treatment” (CHS Pharma, Inc., priority 2013, dated 2020)

Columns and labels:
ARPE19 cells [1] = test: TBHP induced oxidative stress, cell viability by MTS assay; conditions: for protection against TBHP damage as measured by cell viability: 24 hours pretreatment, varying concentrations of TBHP
Method: Cell culture studies using RPE cells—For cell culture experiments human RPE cell line ARPE19 (ATCC # CRL 2302) purchased from American Type Culture Collection (Rockville, Md.) was used. Cells were maintained in DMEM F-12 supplemented with L-glutamine. The culture media also contained 10% fetal bovine serum, 100 units/ml penicillin and 100 ug/ml streptomycin at 37 C and 5% CO2. Cells from passages two to five were treated with either no drug or a range of concentrations of the experimental drugs prior to exposing them to oxidative stress. Oxidative stress was induced chemically by adding tert-butyl hydrogen peroxide (TBHP) or by exposing the cells to UVB light. ARPE19 cells were plated in 96 well plates at a concentration of 10,000 cells/well. Change in cellular viability was measured using the MTS assay kit from Promega (Madison, Wis.).
Experiments involving TBHP induced oxidative stress—ARPE19 cells were grown for 24 hours in 96 well plates in DMEM F-12 complete media. Then they were either treated with no drug or pre-incubated with the experimental drug for 24 hours. The next day the cells were exposed to a range of concentrations (175 μM to 300 μM) of TBHP for 24 hours. On the following day cell viability was measured by the MTS assay (Promega) according to the manufacturer's protocol and which was measured by absorbance at 490 nm using a colorimetric microtiter plate reader (SpectraMax Plus 384; Molecular Devices).
(§2) Cell viability assays—Cellular viability was determined using the CellTiter 96 Aqueous One Cell Proliferation Assay from Promega (Madison, Wis.) as described elsewhere (Marchetti et al, 2009). This assay contains a tertrazolium salt that is converted to formazan dye by the activity of mitochondrial dehydrogenases. The change in color imparted by this conversion was detected by measuring absorbance at 490 nm using a colorimetric microtiter plate reader (Spectramax Plus 384, Molecular Devices).
(§3) Statistical analysis—Unless otherwise mentioned, results of all cell viability experiments represent the mean of three replicates of a representative experiment. The error bars indicate standard deviations. The means were compared using standard t-test and P values <0.05 were considered to be statistically significant.

ARPE19 cells [2] = test: UVB radiation induced damage, cell viability by MTS assay
Method: Cell culture studies using RPE cells—For cell culture experiments human RPE cell line ARPE19 (ATCC # CRL 2302) purchased from American Type Culture Collection (Rockville, Md.) was used. Cells were maintained in DMEM F-12 supplemented with L-glutamine. The culture media also contained 10% fetal bovine serum, 100 units/ml penicillin and 100 ug/ml streptomycin at 37 C and 5% CO2. Cells from passages two to five were treated with either no drug or a range of concentrations of the experimental drugs prior to exposing them to oxidative stress. […] ARPE19 cells were plated in 96 well plates at a concentration of 10,000 cells/well. Change in cellular viability was measured using the MTS assay kit from Promega (Madison, Wis.).
Exposure of RPE cells to UVB radiation—For UV radiation assays, the ARPE19 cells were plated in 96 well plates. After 24 hours of incubation with or without our drug the cells were exposed to UVB light (Ultraspec 2000, Pharmacia Biotech) that emit wavelengths at a range of 290 nm to 370 nm. UVB light at intensities of either 800 mj/cm2 or 1200 mj/cm2 were used for our experiments. The duration of exposure of the two energy levels were determined using the formula: Hλ=t×Eλ, where Hλ is the energy level (J/cm2) t is the duration of exposure in seconds and the Eλ is the irradiance (W/cm2) of the UVB source. Irradiance was measured at 1.3 W/cm2, and the exposure times for energy levels of 800 mj/cm2 and 1200 mj/cm2 were calculated to be 9 minutes 14 seconds and 14 minutes 24 seconds, respectively. Immediately after the UVB exposure, the media was replaced with fresh complete DMEM F-12 medium and after 24 hours of incubation at 37° C. and 5% CO2, cellular viability was measured using the MTS assay.
as §2, §3

iNOS = test: Western blotting of preconditioning marker iNOS in ARPE19 cells; format: cell-based, human; conditions: RPE cells pretreated for 48 hours, 200 μM
Method: (§1) Western blotting protocol—Western blotting was carried out on proteins isolated from ARPE19 cells cultured in 60 mm dishes with no drug or 200 μM sulindac or a combination of 200 μM sulindac and 2 μM chelerythrine. Actin and GAPDH were used as control for standardizing protein concentrations. Two late phase preconditioning markers, Hsp27 and iNOS were detected with antibodies (Sant Cruz Biotechnology).

Hsp27 = test: Western blotting of preconditioning marker Hsp27 in ARPE19 cells; format: cell-based, human; conditions: RPE cells pretreated for 48 hours, 200 μM
Method: as §1

BALB/c mice = test: Photooxidative stress in vivo study (light damage, intravitreal injection)
Method: Photooxidative stress in vivo study—The procedures for the in vivo experiments conformed to the ARVO Statement for the Use of Animals in Ophthalmic and Vision Research and were approved by the IACUC at FAU. For the in vivo photooxidative stress experiments albino BALB/c mice were divided into two groups. Mice belonging to the control group were kept in normal light of 12 hr light/dark cycle and not injected with any drug. The animals of the experimental group were dark-adapted for 24 hours after which they were anesthetized with ketamine/xylazine and injected intravitrealy with sulindac, total volume injected was 2 μl in each eye. Concentration of injected sulindac was 0.094 μg/μl. To prepare our injection, the sulindac powder was first dissolved in Tris buffer (pH 8.0) at a concentration of 200 mM. This 200 mM stock was further diluted in sterile PBS to get the appropriate dilution required for the injections. The sulindac solution was injected into the right eye and PBS in the left eye. The animals in the experimental group received atropine for pupil dilation followed by exposure to continuous bright white light. The intensity and duration of light exposure was 6000 lux for 24 hours. Following light exposure, animals were kept in normal light cycle for 5 days prior to harvesting the ocular tissues for histological or biochemical analysis.
Biochemical analysis of ocular tissues—After the completion of the treatment, animals were euthanized using isoflurane inhalation and eyes were enucleated. Following enucleation, the lenses were removed and retinas were carefully removed and washed in PBS. The retinas were homogenized in RIPA lysis buffer and total protein was isolated. The retinal protein was used for evaluation of preconditioning markers and rhodopsin through Western blotting.
Analysis of photoreceptor (PR) cell viability—The eyes were enucleated and fixed in 2.5% glutaraldehyde and 2% formaldehyde, bisected along the vertical meridian, embedded, and retinal sections at 50 microns obtained. Photoxidative stress-induced loss of PR cells was quantified in LM sections by counting the number of ONL nuceli from a series of digitized images of retinal sections.

[3] = inhibitor 2 uM added simultaneously with sulindac
[4] = eyes treated prior to light exposure
[5] = intravitreal 2 μl of 0.094 μg/μl before 6000 lux for 24 hours

Structure (SMILES): CCCCCC(O)CCCC(=O)O (stereo not drawn) [5-HD, 5-hydroxydecanoic acid]
- reversal of sulindac's protective role against TBHP (ARPE19 cells [1]; mK(ATP) channel blocker 50 uM or 75 uM co-incubated with sulindac): almost complete reversal

Structure (SMILES): CCC(=O)NC[C@H](Cc1ccc(OCCc2nc(-c3ccccc3)oc2C)cc1)N/C(C)=C\C(=O)c1ccc(C(F)(F)F)cc1 [GW 6471]
- effect on sulindac's protection of RPE cells against TBHP induced stress (ARPE19 cells [1]; PPAR alpha antagonist added with sulindac): prevented the protection

Structure (SMILES): O=c1c2nc(Br)n([C@@H]3O[C@@H]4CO[P@@](O)(=S)O[C@H]4[C@H]3O)c2nc2[nH]c(-c3ccccc3)cn12 [Rp-Br-8-PET-cGMPs]
- reversal of protection by sulindac preincubation (UVB damage) on PKG inhibition (ARPE19 cells [2]; PKG inhibitor with sulindac): significantly reversed

Structure (SMILES): COc1ccc2c(c[n+](C)c3c4cc5c(cc4ccc23)OCO5)c1OC [chelerythrine]
- reversal of protective effect of sulindac against UV damage (ARPE19 cells [2]; [3]): significantly reversed the protective effect
- reversal of protective effect of sulindac against TBHP damage (ARPE19 cells [1]; [3]): significantly reversed the protective effect

Structure (SMILES): CC(=O)c1c(O)c(C)c(O)c(Cc2c(O)c3c(c(C(=O)/C=C/c4ccccc4)c2O)OC(C)(C)C=C3)c1O [rottlerin]
- reversal of the sulindac protection against UVB (ARPE19 cells [2]; inhibitor 3 uM with sulindac): no reversal

Structure (SMILES): CC1=C(CC(=O)O)c2cc(F)ccc2/C1=C\c1ccc(S(C)(=O)=O)cc1 [sulindac sulfone]
- protection against UV damage (cell viability) (ARPE19 cells [2]; 200 uM, in place of sulindac): complete protection

Structure (SMILES): CC1=C(CC(=O)O)c2cc(F)ccc2/C1=C\c1ccc([S+](C)[O-])cc1 (stereo not drawn) [sulindac]
- induction of iNOS (iNOS): significant induction
- induction of Hsp27 (Hsp27): significant induction
- Hsp27 level in retinal total protein (Western blotting) (BALB/c mice; [4]): upregulation
- iNOS level in retinal total protein (Western blotting) (BALB/c mice; [4]): upregulation
- Rhodopsin levels by Western blotting, treated eye compared to PBS-treated eye (BALB/c mice; [5]): higher
- protection of photoreceptors against photooxidative stress induced loss of viability (histology) (BALB/c mice; [5]): protection of photoreceptors
- thickness of the photoreceptor cell nuclear layer, greater than PBS-treated eye (BALB/c mice; intravitreal 2 μl of 0.094 μg/μl before 6000 lux for 24 hours, histological sections): about 40%
- protection against UVB exposure (cell viability) (ARPE19 cells [2]; 200 uM, 24 hours pretreatment, 1200 mj UVB): about 50%
- protection against TBHP damage as measured by cell viability (ARPE19 cells [1]; sulindac 125 uM): essentially complete protection
- protection against TBHP damage as measured by cell viability (ARPE19 cells [1]; sulindac 200 uM): essentially complete protection

Structure (SMILES): O=S(=O)(O)c1cc(O)c(O)c(S(=O)(=O)O)c1 [tiron]
- reversal of sulindac's protection against TBHP (ARPE19 cells [1]; ROS scavenger 1 uM or 2 uM coincubated with sulindac): complete reversal
